Data published in patent publication US8933016B2, “Metallodrugs having improved pharmacological properties and methods of manufacture and use thereof” (priority 2012, dated 2015).
≈ marks a conversion by molar mass, not a printed value. Ends that are not written are not given here. Peptide text beside a SMILES is read from it. * marks the point of attachment. X4 = COCCOCCOCCOCCOCCOCCOCCOCCOCCOCCOCCOCCOCCOCCOCCOCCOCCOCCOCCOCCOCCOCCOCCOCCOCCOCCOCCOCCOCCOCCOCCOCCOCCOCCOCCOCCOCCOCCOCCOCCOCCOCCOCCOCCOCCOCCOCCOCCNC(=O)CCN1C(=O)CC(*)C1=O; X2 = COCCOCCOCCOCCOCCOCCOCCOCCOCCOCCOCCOCCOCCOCCOCCOCCOCCOCCOCCOCCOCCOCCOCCOCCNC(=O)CCN1C(=O)CC(*)C1=O; X1 = COCCOCCOCCOCCOCCOCCOCCOCCOCCOCCOCCOCCNC(=O)CCN1C(=O)CC(*)C1=O

Assays:
[1] = tested on: K. pneumonia, 700603 (Kp); assay type: cell-based; details: Mueller Hinton Broth
pUC19 plasmid DNA = assay: Plasmid DNA cleavage by reactive oxygen species; assay type: biochemical; details: 10 μM base pair pUC19, 100 nM M-chelate, 1 mM H2O2, 1 mM ascorbate, pH 7.4
[2] = tested on: Gram+ & Gram−, Fungi, Virus, Parasites, Protozoan, HIV, Cancer cells; details: Antimicrobial Peptide Database; cited from earlier work
[3] = Cytotoxicity toward human Huh7 liver cells
E. coli, 25922 (Ec) = details: 25922 (Ec)
[4] = tested on: E. coli O157:H7, BAA-1883 (Ec F); details: O157:H7
[5] = tested on: A. baumanii, BAA-747 (Ab); details: BAA-747
[6] = tested on: S. pneumoniae, 49619 (Sp); details: 49619 (Sp)

With “GGHGVRRFPWWWPFLRR [PEP 189, GGHGVRRFPWWWPFLRR]” the “MIC Kp” value [1] was 7.2 µM.
In the case of “Cu-GGHC-Amik fr3: copper complex of GGHC-Amikacin, fraction 3 (also: copper complex, amikacin conjugate, site not given here)”, the “Linear (μM bp)” value (pUC19 plasmid DNA) is reported as 0.04 μM bp, the “Nicked (μM bp)” value (pUC19 plasmid DNA) is reported as 6.46 μM bp and the “Supercoiled (μM bp)” value (pUC19 plasmid DNA) is reported as 3.50 μM bp.
In the case of VDKGSYLPRPTPPRPIYNRN [SEQ ID NO: 58], the activity against organisms [2] is given as “active against Gram+ & Gram−”.
In the case of `O=C([O-])CN(CCN(CC(=O)[O-])CC(=O)[O-])CC(=O)[O-].[Fe+3]` [Fe-EDTA], the “Linear (μM bp)” value (pUC19 plasmid DNA) is reported as 0.30 μM bp, the “Nicked (μM bp)” value (pUC19 plasmid DNA) is reported as 2.44 μM bp and the “Supercoiled (μM bp)” value (pUC19 plasmid DNA) is reported as 7.26 μM bp.
In the case of RFPWWWPFLRRGGC [SEQ ID NO: 60], the activity against organisms [2] is given as “active against Gram+ & Gram−, Fungi”.
For RRWKIVVIRWRRGGC [SEQ ID NO: 62], the activity against organisms [2] is given as “active against Gram+ & Gram−”.
For GIGKFLHSAGKFGKAFVGEIMKS [SEQ ID NO: 57], the activity against organisms [2] is listed as “active against Gram+ & Gram−, Virus, Fungi, Parasites, Protozoan, HIV”.
Work on `CC/C(=C(\c1ccccc1)c1ccc(OCCN(C)C)cc1)c1ccccc1` [Tamoxifen, reference compound] yielded an IC50 [3] of 42 µM.
In the case of `CC[C@H](C)[C@H](NC(=O)[C@H](Cc1c[nH]cn1)NC(=O)CNC(=O)CN)C(=O)N[C@@H](CCCNC(=N)N)C(=O)N[C@@H](CCCNC(=N)N)C(=O)N[C@H](C(=O)N[C@H](C(=O)N[C@@H](CCCNC(=N)N)C(=O)N[C@@H](CCCCN)C(=O)N[C@H](C(=O)N[C@H](C(=O)N[C@@H](Cc1c[nH]cn1)C(=O)N[C@H](C(=O)N[C@H](C(=O)N[C@@H](CCCCN)C(=O)N[C@@H](CCCCN)C(=O)NCC(=O)NCC(=O)N[C@@H](CSC1CC(=O)N(CCC(=O)NCCOCCOCCOCCOCCOCCOCCOCCOCCOCCOCCOCCOCCOCCOCCOCCOCCOCCOCCOCCOCCOCCOCCOCCOC)C1=O)C(=O)O)[C@@H](C)CC)[C@@H](C)CC)[C@@H](C)CC)[C@@H](C)CC)[C@@H](C)CC)[C@@H](C)CC` (stereo partly drawn) [PEP 318 PEG 24] (H-GGHIRRIIRKIIHIIKKGGC(X2)-OH; C-terminus assumed), the “MIC Ec” value (E. coli, 25922 (Ec)) is reported as 9.1 µM (≈ 31.9 µg/mL), the “MIC Ec F” value [4] is reported as 18.2 µM (≈ 63.9 µg/mL) and the “MIC Ab” value [5] is reported as 9.1 µM (≈ 31.9 µg/mL). For the same compound, the IC50 [3] was greater than 200 µM.
In the case of VRRFPWWWPFLRRGGC [SEQ ID NO: 66], the activity against organisms [2] is given as “active against Gram+ & Gram−, Fungi”.
For FVQWFSKFLGRILGGC [SEQ ID NO: 63], the activity against organisms [2] is given as “active against Gram+ & Gram−, Virus, Parasites, Protozoan”.
In the case of `O=C([O-])CN1CCN(CC(=O)O)CCN(CC(=O)[O-])CCN(CC(=O)O)CC1.[Cu+2]` [Cu-DOTA], the “Linear (μM bp)” value (pUC19 plasmid DNA) is reported as 0.09 μM bp, the “Nicked (μM bp)” value (pUC19 plasmid DNA) is reported as 1.31 μM bp and the “Supercoiled (μM bp)” value (pUC19 plasmid DNA) is reported as 8.59 μM bp.
For `CC(C)C[C@H](NC(=O)[C@H](CCCNC(=N)N)NC(=O)[C@H](CCC(N)=O)NC(=O)[C@H](CCCCN)NC(=O)[C@@H](NC(=O)[C@H](CCCCN)NC(=O)[C@H](CCCNC(=N)N)NC(=O)[C@H](CC(C)C)NC(=O)[C@H](CC(N)=O)NC(=O)[C@H](Cc1ccccc1)NC(=O)[C@H](Cc1ccccc1)NC(=O)[C@H](CC(C)C)NC(=O)[C@H](CCCCN)NC(=O)[C@H](CCCNC(=N)N)NC(=O)[C@H](CCC(N)=O)NC(=O)CNC(=O)[C@H](Cc1c[nH]cn1)NC(=O)CNC(=O)CN)[C@@H](C)O)C(=O)NCC(=O)N[C@@H](Cc1c[nH]c2ccccc12)C(=O)N[C@@H](Cc1ccccc1)C(=O)N[C@@H](CC(N)=O)C(=O)N[C@@H](CCC(N)=O)C(=O)N[C@@H](CS)C(=O)O` [PEP 192], the “MIC Kp” value [1] was 5.3 µM (≈ 16 µg/mL).
For GRRWKIVVIRWRRGGC [SEQ ID NO: 67], the activity against organisms [2] is given as “active against Gram+ & Gram−”.
In the case of GILAWKWAWWAWRRGGC [SEQ ID NO: 61], the activity against organisms [2] is given as “active against Gram+ & Gram−, Fungi, Virus, HIV”.
For `CC[C@H](C)[C@H](NC(=O)[C@H](Cc1c[nH]cn1)NC(=O)CNC(=O)CN)C(=O)N[C@@H](CCCNC(=N)N)C(=O)N[C@@H](CCCNC(=N)N)C(=O)N[C@H](C(=O)N[C@H](C(=O)N[C@@H](CCCNC(=N)N)C(=O)N[C@@H](CCCCN)C(=O)N[C@H](C(=O)N[C@H](C(=O)N[C@@H](Cc1c[nH]cn1)C(=O)N[C@H](C(=O)N[C@H](C(=O)N[C@@H](CCCCN)C(=O)N[C@@H](CCCCN)C(=O)NCC(=O)NCC(=O)N[C@@H](CSC1CC(=O)N(CCC(=O)NCCOCCOCCOCCOCCOCCOCCOCCOCCOCCOCCOCCOCCOCCOCCOCCOCCOCCOCCOCCOCCOCCOCCOCCOCCOCCOCCOCCOCCOCCOCCOCCOCCOCCOCCOCCOCCOCCOCCOCCOCCOCCOCCOCCOCCOCCOCCOCCOC)C1=O)C(=O)O)[C@@H](C)CC)[C@@H](C)CC)[C@@H](C)CC)[C@@H](C)CC)[C@@H](C)CC)[C@@H](C)CC` (stereo partly drawn) [PEP 318 PEG 48] (H-GGHIRRIIRKIIHIIKKGGC(X4)-OH; C-terminus assumed), the “MIC Ab” value [5] was 13.9 µM (≈ 63.5 µg/mL) and the IC50 [3] was greater than 200 µM.
With `CC[C@H](C)[C@H](NC(=O)[C@H](CCCCN)NC(=O)[C@H](Cc1c[nH]c2ccccc12)NC(=O)[C@H](CCCNC(=N)N)NC(=O)[C@H](CCCNC(=N)N)NC(=O)[C@H](Cc1c[nH]cn1)NC(=O)CNC(=O)CN)C(=O)N[C@H](C(=O)N[C@H](C(=O)N[C@H](C(=O)N[C@@H](CCCNC(=N)N)C(=O)N[C@@H](Cc1c[nH]c2ccccc12)C(=O)N[C@@H](CCCNC(=N)N)C(=O)N[C@@H](CCCNC(=N)N)C(=O)NCC(=O)NCC(=O)N[C@@H](CSC1CC(=O)N(CCC(=O)NCCOCCOCCOCCOCCOCCOCCOCCOCCOCCOCCOCCOC)C1=O)C(=O)O)[C@@H](C)CC)C(C)C)C(C)C` (stereo partly drawn) [PEP 314 PEG 12] (H-GGHRRWKIVVIRWRRGGC(X1)-OH; C-terminus assumed) the “MIC Ec” value (E. coli, 25922 (Ec)) was 11 µM (≈ 31.9 µg/mL), the “MIC Ec F” value [4] was 11 µM (≈ 31.9 µg/mL) and the “MIC Ab” value [5] was 2.7 µM (≈ 7.84 µg/mL). The “MIC Sp” value [6] was 11 µM (≈ 31.9 µg/mL).
For “GGHGIRRIIRKIIHIIKK-NH2 (C-terminus assumed) [PEP 188, GGHGIRRIIRKIIHIIKK]”, the “MIC Kp” value [1] was 1.9 µM.
For GILAWKWAWWAWRR [SEQ ID NO: 55], the activity against organisms [2] is listed as “active against Gram+ & Gram−, Fungi, Virus, HIV”.
For GIRRIIRKIIHIIKK [SEQ ID NO: 53], the activity against organisms [2] is listed as “active against Gram+ & Gram−, Fungi”.
For ILPWKWPWWPWRRGGC [SEQ ID NO: 64], the activity against organisms [2] is listed as “active against Gram+ & Gram−, Fungi, Virus, HIV”.
With `NCC(=O)NCC(=O)N[C@@H](Cc1c[nH]cn1)C(=O)N1CCN(c2cc3c(cc2F)c(=O)c(C(=O)O)cn3C2CC2)CC1` [GGH CIPRO] the “MIC Ec F” value [4] was 8 µM (≈ 4.66 µg/mL).
For IRRIIRKIIHIIKKGGC [SEQ ID NO: 65], the activity against organisms [2] is listed as “active against Gram+ & Gram−, Fungi”.
For GVRRFPWWWPFLRR [SEQ ID NO: 54], the activity against organisms [2] is given as “active against Gram+ & Gram−, Fungi”.
For GIRRIIRKIIHIIKKGGC [SEQ ID NO: 59], the activity against organisms [2] is listed as “active against Gram+ & Gram−, Fungi GVR”.
In the case of GRLARIVVIRVAR [SEQ ID NO: 56], the activity against organisms [2] is listed as “active against Gram+ & Gram−”.
